Drawing on patent publication US12116388B2, “Amylin receptor agonists” (Novo Nordisk A/S, priority 2022, dated 2024), this text covers EC50 for three molecules.

Starred links: 1 amine or outer side, 2 acyl side, 3 side chain; linkers in the order of their positions; H or OH if unused. Residues, ends and D or L forms follow the SMILES beside them. *: point of attachment. C18 diacid = O=C(O)CCCCCCCCCCCCCCCCC(=O)*; γGlu = O=C(O)[C@H](CCC(=O)[*:2])N[*:1]

Broadly, the EC50 is the concentration needed to bring the measured effect to its halfway point.

Experiment [1] has as its target T1, human amylin receptor (hAMYR3) (Homo sapiens, UniProt O60896+P30988).
T1 construct: host or cells: BHK (Baby Hamster Kidney), Hollex-1 cell line further transfected with RAMP3
As to the kind of experiment: Human amylin receptor (hAMYR3) in vitro potency assay, CRE-luciferase reporter in BHK cells. The class given is cell-based. Conditions: BHK hAMYR3/CRE-Luc cells, 3 hours incubation, assay buffer with 1% ovalbumin. An excerpt:
Activation of hAMYR3 leads to increased cellular concentrations of cAMP. Consequently, transcription is activated by promotors containing multiple copies of the CAMP response element (CRE). It is thus possible to measure hAMYR3 activity using a CRE-luciferase reporter gene introduced into Baby Hamster Kidney (BHK) cells co-expressing the hAMYR3.
A BHK cell line was stably transfected with the human calcitonin receptor (a) and a CRE-responsive luciferase (CRE-Luc) reporter gene according to methods known to the person skilled in the art (Hollex-1 cell line, obtained from Zymogenetics described in U.S. Pat. No. 5,622,839). The cell line was further transfected with human receptor modifying protein 3 (RAMP3) using standard methods. This turns the human calcitonin receptor into a human amylin-3(a) receptor.
(§1) Cells stocks were prepared by culturing of the stably transfected BHK hAMYR3/CRE-Luc cell line in growth medium consisting of DMEM (Gibco, 31966-021) supplemented with 10% FBS (Gibco, 16140-071), 1% Pen/Strep (Gibco, 15140-122), 0.5 mg/mL Geneticin (Gibco, 10131-027), 0.4 mg/mL Hygromycin (Invitrogen, 10687010) and 250 nM Methotrexate (Sigma, A6770). Cells at approximately 80-90% confluence were washed once with PBS (Gibco 14190-094) and loosened from the cell flasks with Versene (Gibco, 15040-033) or TrypLE™ (Gibco, 12605-010). After centrifugation, the cell pellet was dissolved and diluted to approximately 2.5×10E6 cells/mL in Recovery™ Cell Culture Freezing Medium (Gibco, 12648-010). Cells were aliquoted and stored at −180° C. until use.
(§2) The assay buffer consisted of DMEM without phenol red (Gibco, 11880-028) supplemented with 1× GlutaMAX (Gibco, 35050-038), 10 mM HEPES (Gibco, 15630-056) and 1% (w/v) ovalbumin (Sigma, A5503).
(§3) To perform the assay, BHK hAMYR3/CRE-Luc cells were thawed, washed once in PBS and seeded in 40 μL growth medium in a white 384-well culture plate (PerkinElmer, 6007688) at a cell density of 4.000 cells/well on the day before the experiment. The plate was incubated over night at 37° C. in 5% CO2. On the day of the assay, cells were washed once in assay buffer. Serial dilutions (7-fold dilutions, 7 concentrations Pr. compound and one well containing only assay buffer) of comparator compounds and amylin analogues were performed in assay buffer often starting from approximately 10 nM in 96-well plates and 30 μL of each concentration added to the 384-well assay plate with cells. The assay plate was incubated for 3 hours at 37° C. in 5% CO2 after which 30 μL SteadyLite Plus (PerkinElmer, 6066759) was added to each well. The assay plate was sealed, incubated at room temperature with gentle shaking for 5 minutes followed by 30 minutes incubation without shaking while protected from light. Luminescence was detected on a luminescence plate reader e.g. a Synergy 2 (BioTek).
(In a reporter assay the amount or activity of a reporter protein is the signal.)

Experiment [2] deals with T2, human calcitonin receptor (hCTR) (Homo sapiens, UniProt P30988).
T2 construct: host or cells: BHK (Baby Hamster Kidney), Hollex-1 cell line
T2 sequence (P30988 25-474): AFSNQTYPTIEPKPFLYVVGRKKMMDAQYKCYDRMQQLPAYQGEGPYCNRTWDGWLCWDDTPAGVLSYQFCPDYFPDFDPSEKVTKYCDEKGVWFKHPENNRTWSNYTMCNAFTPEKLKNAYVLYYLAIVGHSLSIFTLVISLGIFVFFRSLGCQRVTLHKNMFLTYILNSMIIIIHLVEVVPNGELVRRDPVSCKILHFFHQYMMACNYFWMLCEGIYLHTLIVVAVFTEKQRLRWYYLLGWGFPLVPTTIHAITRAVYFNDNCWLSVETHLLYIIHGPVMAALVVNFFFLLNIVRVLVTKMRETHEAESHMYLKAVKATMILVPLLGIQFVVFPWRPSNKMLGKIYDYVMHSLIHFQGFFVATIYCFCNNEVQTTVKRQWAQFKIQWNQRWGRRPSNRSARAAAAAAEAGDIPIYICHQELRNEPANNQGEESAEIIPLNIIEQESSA
The experiment in a line: Human calcitonin receptor (hCTR) in vitro potency assay, CRE-luciferase reporter in BHK cells. It is filed as cell-based. The note with it: BHK hCTR/CRE-Luc cells, 3 hours incubation, assay buffer with 1% ovalbumin; read-out: hCalcR potency, EC50.
From the text: Activation of hCTR leads to increased cellular concentrations of CAMP. Consequently, transcription is activated by promotors containing multiple copies of the CAMP response element (CRE). It is thus possible to measure hCTR activity using a CRE-luciferase reporter gene introduced into Baby Hamster Kidney (BHK) cells co-expressing the hCTR.
A BHK cell line was stably transfected with the human calcitonin receptor (a) and a CRE-responsive luciferase (CRE-Luc) reporter gene according to methods known to the person skilled in the art (Hollex-1 cell line, obtained from Zymogenetics described in U.S. Pat. No. 5,622,839).
as §1, with “hCTR/CRE-Luc” for “hAMYR3/CRE-Luc”, “10131-027)” for “10131-027), 0.4 mg/mL Hygromycin (Invitrogen, 10687010)”
as §2
as §3, with “hCTR/CRE-Luc” for “hAMYR3/CRE-Luc”

T1 sequence (O60896 24-148, one chain of several): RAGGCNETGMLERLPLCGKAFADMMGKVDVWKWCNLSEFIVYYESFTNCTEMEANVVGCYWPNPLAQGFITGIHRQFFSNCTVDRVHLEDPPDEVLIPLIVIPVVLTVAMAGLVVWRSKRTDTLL

`CC[C@H](C)[C@H](NC(=O)[C@H](C)NC(=O)CNC(=O)[C@H](Cc1ccccc1)NC(=O)[C@@H]1CCCN1C(=O)[C@H](CC(=O)O)NC(=O)[C@H](CO)NC(=O)[C@H](CO)NC(=O)[C@H](Cc1c[nH]cn1)NC(=O)[C@H](Cc1c[nH]cn1)NC(=O)[C@H](CC(C)C)NC(=O)[C@H](Cc1ccccc1)NC(=O)[C@H](CCC(=O)O)NC(=O)[C@H](C)NC(=O)[C@H](CC(C)C)NC(=O)[C@H](CCCNC(=N)N)NC(=O)[C@H](CCC(N)=O)NC(=O)[C@@H](NC(=O)[C@H](CCC(N)=O)NC(=O)[C@H](C)NC(=O)[C@@H](NC(=O)[C@H](CO)NC(=O)[C@H](CC(C)C)NC(=O)[C@H](Cc1c[nH]cn1)NC(=O)[C@H](CO)NC(=O)[C@H](C)NC(=O)CC[C@H](NC(=O)CC[C@H](NC(=O)CCCCCCCCCCCCCCCCC(=O)O)C(=O)O)C(=O)O)[C@@H](C)O)[C@@H](C)O)C(=O)N1CCC[C@H]1C(=O)N[C@@H](CO)C(=O)N[C@@H](CO)C(=O)N[C@H](C(=O)N[C@@H](CC(=O)O)C(=O)N[C@H](C(=O)NCC(=O)N1CCC[C@H]1C(=O)N[C@@H](CC(=O)O)C(=O)N[C@H](C(=O)N1CCC[C@H]1C(N)=O)[C@@H](C)O)C(C)C)[C@@H](C)O` [Compound 9, N^1-[(4S)-4-carboxy-4-[[(4S)-4-carboxy-4-(17-carboxyheptadecanoylamino)butanoyl]amino]butanoyl]-[Ala1,Ser2,His3,Leu4,Ser5,Ala7,Gln8,Glu14,His17,Asp21,Pro22,Pro27,Asp31,Pro34,Asp35,Pro37]-human amylin] ({C18 diacid-γGlu-γGlu}-ASHLSTAQTQRLAEFLHHSSDPFGAIPSSTDVGPDTP-NH2): the EC50 was 2.18 pM in experiment [1] and 1.68 pM in experiment [2].

For the molecule `CC[C@H](C)[C@H](NC(=O)[C@@H]1CCCN1C(=O)CNC(=O)[C@H](Cc1ccccc1)NC(=O)[C@H](Cc1c[nH]cn1)NC(=O)[C@H](Cc1c[nH]cn1)NC(=O)[C@H](CC(C)C)NC(=O)[C@H](Cc1ccccc1)NC(=O)[C@H](CCC(=O)O)NC(=O)[C@H](C)NC(=O)[C@H](CC(C)C)NC(=O)[C@H](CCCNC(=N)N)NC(=O)[C@H](CCC(N)=O)NC(=O)[C@@H](NC(=O)[C@H](CCC(N)=O)NC(=O)[C@H](C)NC(=O)[C@@H](NC(=O)[C@H](CO)NC(=O)[C@H](CC(C)C)NC(=O)[C@H](Cc1c[nH]cn1)NC(=O)[C@H](CO)NC(=O)[C@H](C)NC(=O)CC[C@H](NC(=O)CC[C@H](NC(=O)CCCCCCCCCCCCCCCCC(=O)O)C(=O)O)C(=O)O)[C@@H](C)O)[C@@H](C)O)C(=O)N[C@@H](CC(C)C)C(=O)N1CCC[C@H]1C(=O)N1CCC[C@H]1C(=O)N[C@H](C(=O)N[C@@H](CC(=O)O)C(=O)N[C@H](C(=O)NCC(=O)N[C@@H](CO)C(=O)N[C@@H](CCC(=O)O)C(=O)N[C@H](C(=O)N1CCC[C@H]1C(N)=O)[C@@H](C)O)C(C)C)[C@@H](C)O` [Compound 31, N^1-[(4S)-4-carboxy-4-[[(4S)-4-carboxy-4-(17-carboxyheptadecanoylamino)butanoyl]amino]butanoyl]-[Ala1,Ser2,His3,Leu4,Ser5,Ala7,Gln8,Glu14,His17,Pro25,Pro28,Pro29,Asp31,Glu35,Pro37],des-(19-22)-human amylin] ({C18 diacid-γGlu-γGlu}-ASHLSTAQTQRLAEFLHHFGPILPPTDVGSETP-NH2), the EC50 is 2.03 pM in experiment [1] and 2.13 pM in experiment [2].

`CC[C@H](C)[C@H](NC(=O)[C@@H]1CCCN1C(=O)CNC(=O)[C@H](Cc1ccccc1)NC(=O)[C@H](CC(N)=O)NC(=O)[C@H](CC(=O)O)NC(=O)[C@H](CO)NC(=O)[C@H](CO)NC(=O)[C@H](Cc1c[nH]cn1)NC(=O)[C@H](Cc1c[nH]cn1)NC(=O)[C@H](CC(C)C)NC(=O)[C@H](Cc1ccccc1)NC(=O)[C@H](CCC(=O)O)NC(=O)[C@H](C)NC(=O)[C@H](CC(C)C)NC(=O)[C@H](CCCNC(=N)N)NC(=O)[C@H](C)NC(=O)[C@@H](NC(=O)[C@H](CCC(N)=O)NC(=O)[C@H](C)NC(=O)[C@@H](NC(=O)[C@H](CO)NC(=O)[C@H](CC(C)C)NC(=O)[C@H](Cc1c[nH]cn1)NC(=O)[C@H](CO)NC(=O)[C@H](C)NC(=O)CC[C@H](NC(=O)CCCCCCCCCCCCCCCCC(=O)O)C(=O)O)[C@@H](C)O)[C@@H](C)O)C(=O)N[C@@H](CC(C)C)C(=O)N1CCC[C@H]1C(=O)N1CCC[C@H]1C(=O)N[C@H](C(=O)N[C@@H](CC(=O)O)C(=O)N[C@H](C(=O)NCC(=O)N[C@@H](CO)C(=O)N[C@@H](CC(N)=O)C(=O)N[C@H](C(=O)N[C@@H](Cc1ccc(O)cc1)C(N)=O)[C@@H](C)O)C(C)C)[C@@H](C)O` [Compound 38, N^1-[(4S)-4-carboxy-4-(17-carboxyheptadecanoylamino)butanoyl]-[Ala1,Ser2,His3,Leu4,Ser5,Ala7,Gln8,Ala10,Glu14,His17,Asp21,Pro25,Pro28,Pro29,Asp31]-human amylin] ({C18 diacid-γGlu}-ASHLSTAQTARLAEFLHHSSDNFGPILPPTDVGSNTY-NH2): the EC50 in experiment [1] was 1.97 pM; in experiment [2], 3.15 pM.
